System: K98450-129-R-PDC complex spheroid growth, percent test/control
Experiment: Anticancer human tumor K98450-129-R-PDC patient-derived colon adenocarcinoma cell line growth inhibition [RAS]
Conditions: for IC50: curve of first compound; for viability, T/C: stronger effect = lower value
Method in brief: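 Tumour cells grown as complex spheroids with HUVEC endothelial cells and mesenchymal stem cells, treated with RAS pathway inhibitor combinations. Each agent spans half-log steps from near clinical Cmax, or 10 microM where Cmax is unknown.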

[1] = second compound 0.000949 µM, first compound 0.0316 µM
[2] = second compound 0.000949 µM, first compound 0.1 µM
[3] = second compound 0.000949 µM, first compound 0.316 µM
[4] = second compound 0.000949 µM, first compound 1 µM
[5] = second compound 0.000949 µM, first compound 3.16 µM
[6] = second compound 0.000949 µM, first compound 10 µM
[7] = second compound 0.003 µM, first compound 0.0316 µM
[8] = second compound 0.003 µM, first compound 0.1 µM
[9] = second compound 0.003 µM, first compound 0.316 µM
[10] = second compound 0.003 µM, first compound 1 µM
[11] = second compound 0.003 µM, first compound 3.16 µM
[12] = second compound 0.003 µM, first compound 10 µM
[13] = second compound 0.00949 µM, first compound 0.0316 µM
[14] = second compound 0.00949 µM, first compound 0.1 µM
[15] = second compound 0.00949 µM, first compound 0.316 µM
[16] = second compound 0.00949 µM, first compound 1 µM
[17] = second compound 0.00949 µM, first compound 3.16 µM
[18] = second compound 0.00949 µM, first compound 10 µM
[19] = second compound 0.03 µM, first compound 0.0316 µM
[20] = second compound 0.03 µM, first compound 0.1 µM
[21] = second compound 0.03 µM, first compound 0.316 µM
[22] = second compound 0.03 µM, first compound 1 µM
[23] = second compound 0.03 µM, first compound 3.16 µM
[24] = second compound 0.03 µM, first compound 10 µM
[25] = second compound 0.0949 µM, first compound 0.0316 µM
[26] = second compound 0.0949 µM, first compound 0.1 µM
[27] = second compound 0.0949 µM, first compound 0.316 µM
[28] = second compound 0.0949 µM, first compound 1 µM
[29] = second compound 0.0949 µM, first compound 3.16 µM
[30] = second compound 0.0949 µM, first compound 10 µM
[31] = second compound 0.3 µM, first compound 0.0316 µM
[32] = second compound 0.3 µM, first compound 0.1 µM
[33] = second compound 0.3 µM, first compound 0.316 µM
[34] = second compound 0.3 µM, first compound 1 µM
[35] = second compound 0.3 µM, first compound 3.16 µM
[36] = second compound 0.3 µM, first compound 10 µM
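Further: spheroids exposed to agents for seven days before the viability readout.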
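Wherever viability, T/C is given: luminescence used as a proxy for viable cell amount.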

With `CC(C)NCC(C(=O)N1CCN(c2ncnc3c2C(C)CC3O)CC1)c1ccc(Cl)cc1` (stereo not drawn) + CCn1c(-c2cc(N3CCN(C)CC3)cnc2C(C)OC)c2c3cc(ccc31)-c1csc(n1)CC(NC(=O)C1CC1C)C(=O)N1CCCC(N1)C(=O)OCC(C)(C)C2 the IC50 (second compound 0.000949 µM) was > 10 µM, the IC50 (second compound 0.003 µM) was > 10 µM and the IC50 (second compound 0.00949 µM) was > 10 µM. For the same molecule, the IC50 (second compound 0.03 µM) was < 0.0316 µM, the IC50 (second compound 0.0949 µM) was < 0.0316 µM and the IC50 (second compound 0.3 µM) was < 0.0316 µM. For the same molecule, the viability, T/C [1] was 104%, the viability, T/C [2] was 93.3% and the viability, T/C [3] was 89.9%. The viability, T/C [4] was 73.3%, the viability, T/C [5] was 100% and the viability, T/C [6] was 89.9%. It also gave a viability, T/C [7] of 90.7%, a viability, T/C [8] of 80.8% and a viability, T/C [9] of 87.1%. It also gave a viability, T/C [10] of 76.5%, a viability, T/C [11] of 75.3% and a viability, T/C [12] of 79.7%. For the same molecule, the viability, T/C [13] was 66.7%, the viability, T/C [14] was 67% and the viability, T/C [15] was 70%. For the same molecule, the viability, T/C [16] was 74.5%, the viability, T/C [17] was 77.4% and the viability, T/C [18] was 67.5%. The viability, T/C [19] was 48.7%, the viability, T/C [20] was 44.8% and the viability, T/C [21] was 52.7%. The viability, T/C [22] was 47.7%, the viability, T/C [23] was 54.7% and the viability, T/C [24] was 46.9%. It also gave a viability, T/C [25] of 19%, a viability, T/C [26] of 24.3% and a viability, T/C [27] of 17.6%. The viability, T/C [28] was 17.8%, the viability, T/C [29] was 16.2% and the viability, T/C [30] was 11.2%. It also gave a viability, T/C [31] of 11.1%, a viability, T/C [32] of 12.6% and a viability, T/C [33] of 12.5%. For the same molecule, the viability, T/C [34] was 10.1%, the viability, T/C [35] was 9.61% and the viability, T/C [36] was 7.13%.
`CC(C)n1nc(-c2ccc3oc(N)nc3c2)c2c(N)ncnc21` + CCn1c(-c2cc(N3CCN(C)CC3)cnc2C(C)OC)c2c3cc(ccc31)-c1csc(n1)CC(NC(=O)C1CC1C)C(=O)N1CCCC(N1)C(=O)OCC(C)(C)C2 was tested, and the IC50 (second compound 0.000949 µM) was > 0.1 µM, the IC50 (second compound 0.003 µM) was > 0.1 µM and the IC50 (second compound 0.00949 µM) was > 0.1 µM. The IC50 (second compound 0.03 µM) was 0.0101 µM, the IC50 (second compound 0.0949 µM) was < 0.000316 µM and the IC50 (second compound 0.3 µM) was < 0.000316 µM. It also gave a viability, T/C (second compound 0.000949 µM, first compound 0.000316 µM) of 98.9%, a viability, T/C (second compound 0.000949 µM, first compound 0.001 µM) of 80.9% and a viability, T/C (second compound 0.000949 µM, first compound 0.00316 µM) of 91.9%. It also gave a viability, T/C (second compound 0.000949 µM, first compound 0.01 µM) of 70.7%, a viability, T/C [1] of 82.7% and a viability, T/C [2] of 70.7%. The viability, T/C (second compound 0.003 µM, first compound 0.000316 µM) was 88.4%, the viability, T/C (second compound 0.003 µM, first compound 0.001 µM) was 70.8% and the viability, T/C (second compound 0.003 µM, first compound 0.00316 µM) was 76.1%. For the same molecule, the viability, T/C (second compound 0.003 µM, first compound 0.01 µM) was 65.4%, the viability, T/C [7] was 71.2% and the viability, T/C [8] was 64%. The viability, T/C (second compound 0.00949 µM, first compound 0.000316 µM) was 80.7%, the viability, T/C (second compound 0.00949 µM, first compound 0.001 µM) was 60.1% and the viability, T/C (second compound 0.00949 µM, first compound 0.00316 µM) was 63.9%. For the same molecule, the viability, T/C (second compound 0.00949 µM, first compound 0.01 µM) was 57.4%, the viability, T/C [13] was 60.2% and the viability, T/C [14] was 48.1%. For the same molecule, the viability, T/C (second compound 0.03 µM, first compound 0.000316 µM) was 44.8%, the viability, T/C (second compound 0.03 µM, first compound 0.001 µM) was 57.9% and the viability, T/C (second compound 0.03 µM, first compound 0.00316 µM) was 46.3%. It also gave a viability, T/C (second compound 0.03 µM, first compound 0.01 µM) of 51.4%, a viability, T/C [19] of 36.9% and a viability, T/C [20] of 36.1%. The viability, T/C (second compound 0.0949 µM, first compound 0.000316 µM) was 19.6%, the viability, T/C (second compound 0.0949 µM, first compound 0.001 µM) was 20.5% and the viability, T/C (second compound 0.0949 µM, first compound 0.00316 µM) was 17.9%. The viability, T/C (second compound 0.0949 µM, first compound 0.01 µM) was 15.8%, the viability, T/C [25] was 14.6% and the viability, T/C [26] was 11.1%. For the same molecule, the viability, T/C (second compound 0.3 µM, first compound 0.000316 µM) was 9.98%, the viability, T/C (second compound 0.3 µM, first compound 0.001 µM) was 11% and the viability, T/C (second compound 0.3 µM, first compound 0.00316 µM) was 10.3%. It also gave a viability, T/C (second compound 0.3 µM, first compound 0.01 µM) of 8.15%, a viability, T/C [31] of 7.88% and a viability, T/C [32] of 7.36%.
`CC(Nc1ccc2c(c1)OCCn1cc(N3C(=O)OCC3C(F)F)nc1-2)C(N)=O` (stereo not drawn) + CCn1c(-c2cc(N3CCN(C)CC3)cnc2C(C)OC)c2c3cc(ccc31)-c1csc(n1)CC(NC(=O)C1CC1C)C(=O)N1CCCC(N1)C(=O)OCC(C)(C)C2 was tested, and the IC50 (second compound 0.000949 µM) was > 10 µM, the IC50 (second compound 0.003 µM) was > 10 µM and the IC50 (second compound 0.00949 µM) was > 10 µM. For the same molecule, the IC50 (second compound 0.03 µM) was < 0.0316 µM, the IC50 (second compound 0.0949 µM) was < 0.0316 µM and the IC50 (second compound 0.3 µM) was < 0.0316 µM. The viability, T/C [1] was 93.6%, the viability, T/C [2] was 83.7% and the viability, T/C [3] was 86.7%. For the same molecule, the viability, T/C [4] was 63.9%, the viability, T/C [5] was 70.4% and the viability, T/C [6] was 61.7%. For the same molecule, the viability, T/C [7] was 84%, the viability, T/C [8] was 81.1% and the viability, T/C [9] was 75.2%. It also gave a viability, T/C [10] of 67.5%, a viability, T/C [11] of 68.4% and a viability, T/C [12] of 61.3%. For the same molecule, the viability, T/C [13] was 73.8%, the viability, T/C [14] was 74.8% and the viability, T/C [15] was 60.5%. It also gave a viability, T/C [16] of 55.4%, a viability, T/C [17] of 54.8% and a viability, T/C [18] of 51%. It also gave a viability, T/C [19] of 38.4%, a viability, T/C [20] of 48.4% and a viability, T/C [21] of 42.3%. It also gave a viability, T/C [22] of 35.4%, a viability, T/C [23] of 33.8% and a viability, T/C [24] of 26.8%. The viability, T/C [25] was 17.5%, the viability, T/C [26] was 15.9% and the viability, T/C [27] was 16%. The viability, T/C [28] was 14.7%, the viability, T/C [29] was 10.8% and the viability, T/C [30] was 10.1%. It also gave a viability, T/C [31] of 10%, a viability, T/C [32] of 10.2% and a viability, T/C [33] of 9.37%. It also gave a viability, T/C [34] of 8.15%, a viability, T/C [35] of 7.17% and a viability, T/C [36] of 4.8%.
With `C[C@@H](NC(=O)c1ncnc(N)c1Cl)c1ncc(C(=O)Nc2cc(C(F)(F)F)c(Cl)cn2)s1` + CCn1c(-c2cc(N3CCN(C)CC3)cnc2C(C)OC)c2c3cc(ccc31)-c1csc(n1)CC(NC(=O)C1CC1C)C(=O)N1CCCC(N1)C(=O)OCC(C)(C)C2 the IC50 (second compound 0.000949 µM) was > 10 µM, the IC50 (second compound 0.003 µM) was > 10 µM and the IC50 (second compound 0.00949 µM) was > 10 µM. For the same molecule, the IC50 (second compound 0.03 µM) was > 10 µM, the IC50 (second compound 0.0949 µM) was < 0.0316 µM and the IC50 (second compound 0.3 µM) was < 0.0316 µM. For the same molecule, the viability, T/C [1] was 105%, the viability, T/C [2] was 103% and the viability, T/C [3] was 106%. The viability, T/C [4] was 97.2%, the viability, T/C [5] was 103% and the viability, T/C [6] was 90.5%. It also gave a viability, T/C [7] of 105%, a viability, T/C [8] of 88.8% and a viability, T/C [9] of 88.4%. The viability, T/C [10] was 90.7%, the viability, T/C [11] was 110% and the viability, T/C [12] was 77.1%. It also gave a viability, T/C [13] of 76.1%, a viability, T/C [14] of 70.7% and a viability, T/C [15] of 81.8%. The viability, T/C [16] was 88.8%, the viability, T/C [17] was 75.3% and the viability, T/C [18] was 62.4%. The viability, T/C [19] was 57.7%, the viability, T/C [20] was 62.3% and the viability, T/C [21] was 74.1%. For the same molecule, the viability, T/C [22] was 67.3%, the viability, T/C [23] was 73.9% and the viability, T/C [24] was 51.5%. The viability, T/C [25] was 25.3%, the viability, T/C [26] was 31.9% and the viability, T/C [27] was 37%. For the same molecule, the viability, T/C [28] was 31.9%, the viability, T/C [29] was 37.3% and the viability, T/C [30] was 17.8%. For the same molecule, the viability, T/C [31] was 11.4%, the viability, T/C [32] was 14.6% and the viability, T/C [33] was 16.4%. The viability, T/C [34] was 13.5%, the viability, T/C [35] was 16% and the viability, T/C [36] was 11%.

— PubChem BioAssay AID2060891 (Molecular Pharmacology Branch, DTP, NCI, 2025)
